Source: ChEMBL document CHEMBL1157500, “Spiroleptosphol isolated from Leptosphaeria doliolum” (Bioorg Med Chem Lett, 2008)
Values after ≈ are worked out from the molar mass of the structure shown.

Tested on: P388
Test: Cytotoxicity against mouse P388 cells
Format: functional, cell-based

C=C1OC(=O)[C@@]2([C@H](/C=C/[C@H](C)C[C@H](C)CC)C=C[C@@H](O)[C@@H]2O)[C@H]1O [SPIROLEPHTOSHOL]
EC50: 20 µg/mL (≈ 59.4 µM)
